Results from ChEMBL document CHEMBL2202954, “The effect of PLC-γ2 inhibitors on the growth of human tumour cells” (2012).

Tested on: MDA-MB-435
Experiment: Cytotoxicity against human MDA-MB-435 cells by SRB assay
Type: functional
Details: for CC50: read-out: LC50 (the source's name)

SMILES | GI50 | TGI | CC50
Nc1c(C(=O)Nc2ccccc2)sc2nc3c(cc12)C(=O)CCC3 | 89 nM | 297 nM | –
Cc1cc(C)c(NC(=O)c2sc3nc4c(cc3c2N)C(=O)CCC4)c(C)c1 | 267 nM | 1160 nM | –
Cc1ccccc1NC(=O)c1sc2nc3c(cc2c1N)C(=O)CCC3 | 331 nM | 1980 nM | –
Cc1ccc(Cl)cc1NC(=O)c1sc2nc3c(cc2c1N)C(=O)CCC3 | 1100 nM | 5040 nM | –
Nc1c(C(=O)Nc2cccc(Cl)c2)sc2nc3c(cc12)C(=O)CCC3 | 45 nM | 270 nM | 900 nM
Nc1c(C(=O)Nc2ccccc2F)sc2nc3c(cc12)C(=O)CCC3 | 196 nM | 567 nM | 8000 nM
